Measurements taken from paper PMC4674085, “Towards Prebiotic Catalytic Amyloids Using High Throughput Screening” (PLoS ONE, 2015).
One block for each substance: values may come before it.

Assays:
[1] = ATR-FTIR, amide I peak of aggregates; format: physicochemical; design: key: indicates that no peak was observed within the typical range of stretching frequencies forβ-structure (between dashed lines at 1638 cm−1 and 1615 cm−1); conditions: air-dried pellet, crude peptide
Description: Samples were prepared as for the CD measurements, but instead of re-suspending the samples after centrifugation, 3 μl of H2O were added to the pellet so that it could be placed onto the diamond ATR cell of a Bruker Alpha-p ATR-FTIR spectrometer followed by air-drying before measuring the spectra. Blank subtraction was performed with an empty cell (air) and all measurements were performed without the pressure applicator.
(§1) Table A and associated data: Biophysical characterization of library
(§2) Sequence ThT1 CD2 FTIR3 EM4 ThT CD FTIR EM X-ray5 […]
3. The peak position in amide I region is given in cm−1. […]

[2] = Transmission electron microscopy (TEM) of fibrils; format: physicochemical; design: key: +: ﬁbrils present; −: absent in EM micrographs; conditions: uranyl acetate stain
Description: The samples of the amyloid library (50 mM HEPES pH 7.3 or 50 mM NaOAc pH 4) were applied directly to glow-discharged carbon-coated grids, washed and then stained with uranyl acetate. Images were recorded on a Philips CM 12 electron microscope.
as §1, §2
4. (+) ﬁbrils present or (−) absent in EM micrographs. […]

[3] = Plate reader 4NPA hydrolysis kinetics of purified peptide amyloids at pH 7.3; format: biochemical; conditions: 4NPA hydrolysis, pH 7.3 HEPES with zinc(II), 20 μM purified peptide; for k cat/K M: 0.1-1.0 mM 4NPA, 1% CH3CN, A400, Michaelis-Menten fit, triplicate (duplicate for 8, 27, 34, 35); for k cat/K M / k cat: per monomer peptide; for K M / k cat: Michaelis-Menten fit
[4] = Circular dichroism (CD), secondary structure of aggregates; format: physicochemical; design: key: β+: has minimum near 217 nm; β++: has minimum near 217 nm and a maximum near 197 nm; −: signal too weak to interpret; ?: spectra not typical of any secondary structure
Description: The concept of creating an amyloid library out of a peptide library is only meaningful if the vast majority of the peptides actually form amyloids in at least one of the conditions tested. To establish the validity of our amyloid library we measured circular dichroism (CD), Fourier transform infrared spectroscopy (ATR-FTIR), as well as thioflavin T (ThT) fluorescence of peptides 1–33 at pH 7.3 (50 mM HEPES) and pH 4 (50 mM NaOAc) (see interactive Table A and associated data in S1 File). Based on the analysis of the CD and ATR-FTIR spectra (shown in the interactive Table A in S1 File) all the peptides formed β-structured aggregates in at least one condition. Most of the 33 peptides induced a significant increase in ThT fluorescence in at least one condition. […] The fibrils from a selection of the active peptides were aligned and analyzed by X-ray diffraction (Figures C and D in S1 File). In each case we observed the cross-β diffraction pattern typical of amyloid fibrils, although the degree of sample alignment varied. For two samples, 14 and 27, the difference in meridional and equatorial diffraction intensities was small but easily detected in a plot of the angular dependence of the intensity (Figure D in S1 File). The conclusion that can be drawn out of the multiple analysis techniques is that the 33 peptides that comprise the library are overwhelmingly prone to form fibril-like, β-structured aggregates. The cross-β diffraction of the tested aggregates would imply that they are more specifically all amyloidogenic.
CD measurements were carried out on a Jasco J815. Samples were prepared by centrifuging the amyloid library at 25,000 g for 10 min and then removing the supernatant. The pellets were resuspended at an approximate concentration of 100 μg/ml in 10 mM HEPES pH 7.3 (for mixtures from 50 mM HEPES) or 10 mM NaOAc pH 4 (for mixtures from 50 mM NaOAc), the suspensions were then treated with an ultrasonic probe for 5 s, upon which the solutions were placed in 1 mm cuvettes, diluted as necessary to maintain the detector voltage below 600 V and scanned from 260–190 nm at 50 nm/min, 1 nm band-pass, 2 second integration, averaged over 3 repetitions.
as §1, §2
2. […]

[5] = Thioflavin T fluorescence (ThT); format: physicochemical; conditions: crude peptide fibrillized at 160 μM, mixed 10:1 with 50 μM ThT, ex 440 nm em 480 nm
Description: The samples of the amyloid library (50 mM HEPES pH 7.3 or 50 mM NaOAc pH 4) were mixed 10:1 with 50 μM ThT and the increase in fluorescence was measured in a 384-well plate in a BMG Pherastar platereader (ex: 440 nm em: 480 nm). The background signal from the peptides without ThT was subtracted from the one with the ThT present in the sample. Due to the large dynamic range of the signals among the many samples, the measurements were made at two different gain settings to ensure that all of the signals fell within the measureable range.
as §1
Sequence ThT1 CD2 FTIR3 EM4 ThT CD FTIR EM X-ray5
1. Fold increase in ThT ﬂuorescence over background. […]

[6] = pH 4.0, pellet (25,000 g, 10 min) resuspended ~100 μg/ml in 10 mM NaOAc pH 4, crude peptide
[7] = pH 7.3, pellet (25,000 g, 10 min) resuspended ~100 μg/ml in 10 mM HEPES pH 7.3, crude peptide

Substance: Ac-YVHVHVHV-NH2 [Peptide 8, Ac-YVHVHVHV-CONH2]
- FTIR peak position in amide I region ([1]; pH 4.0 (50 mM NaOAc)): −
- FTIR peak position in amide I region ([1]; pH 7.3 (50 mM HEPES)): 1627 cm⁻¹
- EM, fibrils in EM micrographs ([2]; pH 4.0, 50 mM NaOAc): −
- EM, fibrils in EM micrographs ([2]; pH 7.3, 50 mM HEPES): +
- k cat/K M [3]: 2.288 ± 0.077 M⁻¹ s⁻¹
- K M [3]: 2390 ± 320 µM
- k cat [3]: 0.547±0.056 10^-2s^-1
- CD spectrum class [4, 6]: −
- CD spectrum class [4, 7]: β+
- ThT, fold increase in ThT fluorescence over background ([5]; pH 4.0, 50 mM NaOAc): 1 fold
- ThT, fold increase in ThT fluorescence over background ([5]; pH 7.3, 50 mM HEPES): 126 fold

Substance: Ac-YVHVHVSV-NH2 [Peptide 11, Ac-YVHVHVSV-CONH2]
- FTIR peak position in amide I region ([1]; pH 4.0 (50 mM NaOAc)): −
- FTIR peak position in amide I region ([1]; pH 7.3 (50 mM HEPES)): 1624 cm⁻¹
- EM, fibrils in EM micrographs ([2]; pH 7.3, 50 mM HEPES): +
- k cat/K M [3]: 6.29 ± 0.52 M⁻¹ s⁻¹
- K M [3]: 870 ± 150 µM
- k cat [3]: 0.514±0.051 10^-2s^-1
- CD spectrum class [4, 6]: −
- CD spectrum class [4, 7]: β++
- ThT, fold increase in ThT fluorescence over background ([5]; pH 4.0, 50 mM NaOAc): 1 fold
- ThT, fold increase in ThT fluorescence over background ([5]; pH 7.3, 50 mM HEPES): 18 fold

Substance: Ac-YVSVHVHV-NH2 [Peptide 9, Ac-YVSVHVHV-CONH2]
- FTIR peak position in amide I region ([1]; pH 4.0 (50 mM NaOAc)): −
- FTIR peak position in amide I region ([1]; pH 7.3 (50 mM HEPES)): 1624 cm⁻¹
- EM, fibrils in EM micrographs ([2]; pH 7.3, 50 mM HEPES): +
- k cat/K M [3]: 1.461 ± 0.094 M⁻¹ s⁻¹
- K M [3]: 3710 ± 390 µM
- k cat [3]: 0.544±0.048 10^-2s^-1
- CD spectrum class [4, 6]: −
- CD spectrum class [4, 7]: β++
- ThT, fold increase in ThT fluorescence over background ([5]; pH 4.0, 50 mM NaOAc): 1 fold
- ThT, fold increase in ThT fluorescence over background ([5]; pH 7.3, 50 mM HEPES): 82 fold

The next lines start with results.

- FTIR peak position in amide I region ([1]; pH 4.0 (50 mM NaOAc)): −
- FTIR peak position in amide I region ([1]; pH 7.3 (50 mM HEPES)): 1626 cm⁻¹
- EM, fibrils in EM micrographs ([2]; pH 4.0, 50 mM NaOAc): +
- EM, fibrils in EM micrographs ([2]; pH 7.3, 50 mM HEPES): +
- CD spectrum class [4, 7]: β+
- ThT, fold increase in ThT fluorescence over background ([5]; pH 4.0, 50 mM NaOAc): 1 fold
- ThT, fold increase in ThT fluorescence over background ([5]; pH 7.3, 50 mM HEPES): 133 fold
Substance: Ac-YVHVHVDV-NH2 [Peptide 21, Ac-YVHVHVDV-CONH2]
- k cat/K M [3]: 0.473 ± 0.046 M⁻¹ s⁻¹
- K M [3]: 1230 ± 320 µM
- k cat [3]: 0.059±0.010 10^-2s^-1

- FTIR peak position in amide I region ([1]; pH 4.0 (50 mM NaOAc)): 1623 cm⁻¹
- FTIR peak position in amide I region ([1]; pH 7.3 (50 mM HEPES)): −
- EM, fibrils in EM micrographs ([2]; pH 4.0, 50 mM NaOAc): +
- CD spectrum class [4, 6]: β++
- CD spectrum class [4, 7]: −
- ThT, fold increase in ThT fluorescence over background ([5]; pH 4.0, 50 mM NaOAc): 9 fold
- ThT, fold increase in ThT fluorescence over background ([5]; pH 7.3, 50 mM HEPES): 2 fold
Substance: Ac-YVDVHVDV-NH2 [Peptide 25, Ac-YVDVHVDV-CONH2]

- FTIR peak position in amide I region ([1]; pH 4.0 (50 mM NaOAc)): −
- FTIR peak position in amide I region ([1]; pH 7.3 (50 mM HEPES)): 1625 cm⁻¹
- EM, fibrils in EM micrographs ([2]; pH 7.3, 50 mM HEPES): +
- CD spectrum class [4, 6]: −
- CD spectrum class [4, 7]: β+
- ThT, fold increase in ThT fluorescence over background ([5]; pH 4.0, 50 mM NaOAc): 1 fold
- ThT, fold increase in ThT fluorescence over background ([5]; pH 7.3, 50 mM HEPES): 129 fold
Substance: Ac-YVAVHVHV-NH2 [Peptide 27, Ac-YVAVHVHV-CONH2]
- k cat/K M [3]: 4.26 ± 0.13 M⁻¹ s⁻¹
- K M [3]: 7200 ± 2100 µM
- k cat [3]: 3.05±0.80 10^-2s^-1
